Experimental data published in patent US20070071792A1, “In VIVO formed matrices including natural biodegradale polysaccharides and ophthalmic uses thereof” (priority 2005, published 2007).

What was measured:
[1] = system: PC-12 cells; experiment: Cell viability within polyalditol-acrylate redox components (Live/Dead Viability/Cytotoxicity Kit); conditions: 15 min
Method: Cell suspensions were prepared as follows: PC-12 cells (ATCC; passage 5; 75% confluency) were harvested from a T-75 flask using Trypsin-EDTA for 2 minutes. The cells were placed in a 15 mL polyethylene conical (VWR) and centrifuged in F-12k media without serum for 4 minutes at 500 rpm. The cells were counted using a hemocytometer, centrifuged for 4 minutes at 500 rpm, and resuspended at 600,000 cells/mL in sterile PBS.
In order to determine the effect of individual components of the matrix forming compositions on cell viability, solutions A-G were independently mixed with PC-12 cells. 50 uL of cell suspension was added to 350 uL of solutions A-G (Table 7). After a 15 minute incubation, cell viability was assessed using a Live/Dead™ Viability/Cytotoxicity Kit (cat.# L3224; Molecular Probes, Eugene, Oreg.).
The effect of a formed matrix on cell viability was also tested. To form the PD-A matrix, solution #1 (200 mg PD-A, 10 uL TEMED, 20 uL 1N HCl, 470 uL PBS) was added in the amount of 200 uL to a 1.6 ml eppendorf (VWR). Solution #2 (400 mg PD-A, 10 mg Potassium persulfate, 75K PC-12 cells, 500 uL PBS) was added in the amount of 200 uL to solution #1 in the eppendorf and mixed for 10 seconds. After a 15 minute incubation, cell viability was assessed using the Live/Dead™ Viability/Cytotoxicity Kit.

## O=C(O)/C=C\C(=O)NCCCCCC(=O)O
other
  melting point: 160 to 165 °C

## N.N.O=S(=O)(O)OOS(=O)(=O)O [Ammonium persulfate]
[1]; 10 mg/ml in PBS
  Cell viability (%): 90%
[1]; 120 mg/ml in PBS
  Cell viability (%): 90%

## O=S(=O)([O-])OOS(=O)(=O)[O-].[K+].[K+] [Potassium persulfate]
[1]; 10 mg/ml in PBS
  Cell viability (%): 90%

## O=S(=O)([O-])OOS(=O)(=O)[O-].[Na+].[Na+] [Sodium persulfate]
[1]; 5 mg/ml in PBS
  Cell viability (%): 90%
